Results published in publication PMC10058310 (Science Advances, 2023).

Tests used:
[1] = system: recombinant SARS2 encoding A173V M^pro; assay type: cell-based, SARS-CoV-2; settings: read-out: IC50 (95% CI)
[2] = system: recombinant SARS2 encoding ∆P168/A173V M^pro; assay type: cell-based, SARS-CoV-2; settings: read-out: IC50 (95% CI)
SARS2 M^pro P168G = settings: cited from earlier work
[3] = system: recombinant SARS2 encoding ∆P168 M^pro; experiment: microbe, parasite or virus in culture; assay type: cell-based; settings: […], A549-hACE2 cells
SARS2 M^pro P168S [4] = biological target: T1, SARS2 M^pro P168S (Severe acute respiratory syndrome coronavirus 2, UniProt P0DTD1, P3431S); assay type: cell-based, SARS-CoV-2
SARS2 M^pro M49I = SARS2 M^pro M49I (Severe acute respiratory syndrome coronavirus 2, UniProt P0DTD1, M3312I); settings: cited from earlier work
SARS2 M^pro P168S [5] = biological target: T1, SARS2 M^pro P168S; settings: cited from earlier work

Structure (SMILES): Cn1cnc(Cn2c(=O)[nH]/c(=N\c3cc4cn(C)nc4cc3Cl)n(Cc3cc(F)c(F)cc3F)c2=O)n1 [Ensitrelvir, ensitrelvir]
- IC50 [1]: 7.8 nM
- IC50 [2]: 3.3 nM

Structure (SMILES): CC(C)C[C@H](NC(=O)OCc1ccccc1)C(=O)N[C@@H](C[C@@H]1CCNC1=O)C(O)S(=O)(=O)[O-].[Na+] (stereo partly drawn) [GC376]
- effect of amino acid change on inhibitor susceptibility (SARS2 M^pro P168G): no effect

Structure (SMILES): CC(C)(C)[C@H](NC(=O)C(F)(F)F)C(=O)N1C[C@H]2[C@@H]([C@H]1C(=O)N[C@H](C#N)C[C@@H]1CCNC1=O)C2(C)C [Nirmatrelvir, nirmatrelvir]
- IC50 [1]: 36 nM

Structure (SMILES): CCC(CC)COC(=O)[C@H](C)N[P@](=O)(OC[C@H]1O[C@@](C#N)(c2ccc3c(N)ncnn23)[C@H](O)[C@@H]1O)Oc1ccccc1 [Remdesivir, remdesivir]
- Fold change in antiviral EC50 [3]: 0.9 fold
- Fold change in antiviral EC50 ([3]; listed as remdesivir): none of the mutants alter susceptibility
- IC50 [1]: 1300 nM
- IC50 [2]: 1500 nM

Structure (SMILES): CC(C)(C)NC(=O)N[C@H](C(=O)N1C[C@H]2[C@@H]([C@H]1C(=O)NC(CC1CCC1)C(=O)C(N)=O)C2(C)C)C(C)(C)C (stereo partly drawn) [boceprevir]
- fold increase in susceptibility (SARS2 M^pro P168S [4]): 5.5 fold
- effect of substitution on inhibitor susceptibility (SARS2 M^pro M49I): little effect
- effect of amino acid change on inhibitor susceptibility (SARS2 M^pro P168S [5]): improve susceptibility
- effect of amino acid change on inhibitor susceptibility (SARS2 M^pro P168G): improve susceptibility
